Experimental data as given in US10766940B2, “Brain penetrant amylin receptor based peptides for Alzheimer's disease” (The Governors of the University of Alberta, priority 2016, dated 2020).
Residues, ends and D or L forms follow the SMILES beside them. No end group written: not given here.

Columns and labels:
AMY1 = target: T1, AMY1 (Homo sapiens, UniProt O60894+P30988); assay: Flow cytometry cell uptake, AMY1 cells; assay type: cell-based; conditions: 10 μM, 37° C., 60 min
T1 construct: expressed in transfected cells
T1 sequence (P30988 25-474): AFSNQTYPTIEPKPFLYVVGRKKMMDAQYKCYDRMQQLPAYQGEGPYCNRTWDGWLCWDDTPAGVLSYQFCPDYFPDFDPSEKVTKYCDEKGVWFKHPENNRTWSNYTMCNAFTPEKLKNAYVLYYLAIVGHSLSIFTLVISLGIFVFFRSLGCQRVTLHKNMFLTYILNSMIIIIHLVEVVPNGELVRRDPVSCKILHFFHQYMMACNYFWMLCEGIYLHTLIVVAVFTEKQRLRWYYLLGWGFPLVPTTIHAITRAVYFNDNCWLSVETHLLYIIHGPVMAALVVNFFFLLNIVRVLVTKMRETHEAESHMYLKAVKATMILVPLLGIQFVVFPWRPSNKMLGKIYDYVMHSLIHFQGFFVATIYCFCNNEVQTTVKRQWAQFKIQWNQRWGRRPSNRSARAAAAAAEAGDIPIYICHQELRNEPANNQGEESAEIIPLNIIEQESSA
T1 sequence (O60894 27-148 partner): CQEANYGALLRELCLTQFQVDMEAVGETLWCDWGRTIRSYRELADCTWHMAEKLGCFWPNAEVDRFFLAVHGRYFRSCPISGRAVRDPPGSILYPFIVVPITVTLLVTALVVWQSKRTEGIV

TgCRND8 AD mouse model [1] = assay: T-maze alternation, chronic icv infusion of AC253; assay type: in vivo; conditions: TgCRND8 mice receiving icv AC253 vs other groups
Protocol: (§1) Age-matched, wild-type littermate (C57BL/6 background) male or female mice were used. […] Heterozygous CTR (het CTR) mice (C57BL/6J background) with a 50% deletion of CTR were obtained from Drs. R. A. Davey and J. D. Zajac (Department of Medicine, Austin Health, University of Melbourne, Heidelberg, Victoria, Australia). Mice were housed individually under standard laboratory conditions (12/12-h light/dark cycle, lights on at 0600 h) with a room temperature of 21° C. Water and food were available ad libitum unless otherwise indicated. All tests were performed during the light phase between 0900 and 1600 h in accordance with institutional guidelines. The mice were 3 months old at the onset of testing.
A microcannula was stereotaxically inserted into the right cerebral ventricle (0.12 right lateral and 0.06 posterior to bregma, 3 mm deep) of isofluorane-anesthetized mice, and connected to an osmotic pump (Alzet; model 2004) implanted subcutaneously on the back of the mouse. The pump infused a solution of either aCSF or AC253 in aCSF into the ventricle at a rate of […] to yield an estimated concentration of 1 μM AC253 in the mouse CSF at equilibrium based upon the known CSF dynamics in the mouse brain (Di Pardo et al., 2012). […] Animals were monitored on a daily basis for signs of treatment-related toxicity, such as poor grooming, lethargy, loss of bodyweight, and abnormal behavior. […]

TgCRND8 AD mouse model [2] = assay: Morris Water Maze, chronic icv infusion of AC253; assay type: in vivo
Protocol: as §1
A microcannula was stereotaxically inserted into the right cerebral ventricle (0.12 right lateral and 0.06 posterior to bregma, 3 mm deep) of isofluorane-anesthetized mice, and connected to an osmotic pump (Alzet; model 2004) implanted subcutaneously on the back of the mouse. The pump infused a solution of either aCSF or AC253 in aCSF into the ventricle at a rate of […] to yield an estimated concentration of 1 μM AC253 in the mouse CSF at equilibrium based upon the known CSF dynamics in the mouse brain (Di Pardo et al., 2012). The pump reservoir was replaced every 28 days for a total of 5-6 months. Animals were monitored on a daily basis for signs of treatment-related toxicity, such as poor grooming, lethargy, loss of bodyweight, and abnormal behavior. […]
The MWM apparatus consisted of a 2 m circular blue plastic pool filled with water (24-25° C.), which was rendered opaque by the addition of non-toxic white paint. […] The behavior of a mouse was recorded by a video camera connected to a video tracking system (HVS Image 2100, HVS Image, Buckingham, UK).
The pool was surrounded by a white curtain, and a mouse was released facing the wall at points (N, E, S, W) which were chosen semi-randomly. […] Memory was evaluated in probe trial, administered on day 8 as the first trial of the day. […] Memory for the platform location was expressed as the percent of time spent in TQ.

[3] = system: TgCRND8 and wild-type mice; assay: Daily monitoring for treatment-related toxicity during chronic icv infusion; assay type: in vivo, mouse; conditions: chronic icv infusion 5-6 months
Protocol: (§2) A microcannula was stereotaxically inserted into the right cerebral ventricle (0.12 right lateral and 0.06 posterior to bregma, 3 mm deep) of isofluorane-anesthetized mice, and connected to an osmotic pump (Alzet; model 2004) implanted subcutaneously on the back of the mouse. The pump infused a solution of either aCSF or AC253 in aCSF into the ventricle at a rate of […] to yield an estimated concentration of 1 μM AC253 in the mouse CSF at equilibrium based upon the known CSF dynamics in the mouse brain (Di Pardo et al., 2012). The pump reservoir was replaced every 28 days for a total of 5-6 months. Animals were monitored on a daily basis for signs of treatment-related toxicity, such as poor grooming, lethargy, loss of bodyweight, and abnormal behavior. After completion of medication and behavioral tests, all mice were killed with an overdose of isoflourane anesthetic, perfused transcardially with saline, and the brains were harvested. The left hemisphere per animal was frozen for biochemical analysis (Western blot, ELISA), and the right hemisphere retained for histological analysis.

[4] = Lipophilicity, shake flask 1-octanol/water partition; assay type: physicochemical
Protocol: Peptides hydrophobicity was determined using the shake flask method and 1-octanol/water partition coefficient (log Po/w) was determined. […] Peptide concentration (area) in both phases (1-octanol and water) were analyzed by RP-HPLC. The final log Po/w value was calculated by dividing the concentration (C) of the peptide in the two phases as presented by the area under the peak (partition coefficients=C1-octanol/Cwater).

[5] = system: APP, CTR, RAMP3, synapsin 1, synaptophysin, Iba1 in TgCRND8 mice brains; assay: Western blot of brain homogenates after 5 months icv AC253; assay type: in vivo, mouse
Protocol: as §2
Frozen brain tissues were homogenized in cold RIPA buffer with protease inhibitors and proteins were isolated and measured using BCA assay (BioRad, Mississauga, ON, Canada). Proteins were loaded at 50 μg per lane on a 12% polyacrylamide gel for CTR, RAMP3, NeuN, synapsin1, phospho-synapsin, and Iba1, or 4-20% polyacrylamide gradient gel (BioRad) for APP. Proteins were transferred to nitrocellulose membrane, and blocked with LiCOR blocking buffer. Blots were incubated with primary antibodies overnight at 4° C. on a shaker. Primary antibody used for CTR (1:1000 rabbit; Thermo Scientific), RAMP3 (1:1000 rabbit; Santa Cruz Biotechnology), 6E10 for APP (1:5000 mouse; 6E10; Covance), NeuN (1:1000, rabbit, Abcam), synapsin-1 (1:1000 rabbit, Abcam), synaptophysin (1:1000, rabbit, Abcam), phosphosynapsin (1:1000, rabbit, Abcam), Iba1 (1:1000, rabbit, Wako), β-tubulin (1:1000, rabbit, Cell Signaling Technology, Inc.) and β-actin (1:10000 mouse, Sigma-Aldrich). IRDye 800CW goat anti-rabbit and IRDye 680CW goat anti-mouse were used as secondary antibodies. Blots were imaged using LiCor Odyssey image system.

[6] = system: heterozygous CTR knockdown mice (50% depletion of amylin receptors); assay: R5 brain uptake in heterozygous CTR knockdown mice; assay type: in vivo, mouse; conditions: Wt vs CTR knockdown mice, ip, 2 hr
Protocol: Mice were injected with a single dose and then sacrificed, and the brains were extracted after 2 hours from injection. Fluorescence in brains was quantified as previously described.

| Compound | flow cytometry binding to AMY1 cells (AMY1) | T-maze, identification of the food arm (TgCRND8 AD mouse model [1]) | latencies to locate the hidden platform (MWM) (TgCRND8 AD mouse model [2]; TgCRND8 mice at 8 months of age, after 5 months of icv treatment, vs littermates receiving CSF) | memory in probe trials for location of the target quadrant (TgCRND8 AD mouse model [2]; TgCRND8 mice, 8 months of age) | memory deficits in MWM, Wt controls (TgCRND8 AD mouse model [2]; wild-type littermate controls, icv AC253 or CSF, 8 months of age) | signs of off-target effects or changes in body weight [3] | Partition coefficient [4] | logP [4] | amylin receptor (CTR, RAMP3 proteins) expression levels in the brain ([5]; Tg AC253 vs Tg CSF) | increase in expression level of synapsin 1 ([5]; Tg AC253 vs Tg CSF controls) [%] | increase in expression level of synaptophysin ([5]; Tg AC253 vs Tg CSF controls) [%] | APP expression (Western blot) ([5]; Tg AC253 vs Tg CSF, 5 months icv) | reduction of expression levels of Iba-1 (microglial marker) ([5]; Tg-AC253 vs Tg-CSF) [%] | brain uptake in relation to amylin receptor expression [6] |
| --- | --- | --- | --- | --- | --- | --- | --- | --- | --- | --- | --- | --- | --- | --- |
| LGRLSQELHRLQTY (LGRLSQELHRLQTY-NH2) [R14] | selective and significant specific binding |  |  |  |  |  |  |  |  |  |  |  |  |  |
| CC(C)C[C@H](NC(=O)[C@H](CCCNC(=N)N)NC(=O)CNC(=O)[C@@H](N)CC(C)C)C(=O)N[C@@H](CO)C(=O)N[C@@H](CCC(N)=O)C(=O)N[C@@H](CCC(=O)O)C(=O)N[C@@H](CC(C)C)C(=O)N[C@@H](Cc1c[nH]cn1)C(=O)N[C@@H](CCCNC(=N)N)C(=O)N[C@@H](CC(C)C)C(=O)N[C@@H](CCC(N)=O)C(=O)N[C@H](C(=O)N[C@@H](Cc1ccc(O)cc1)C(=O)N1CCC[C@H]1C(=O)N[C@@H](CCCNC(=N)N)C(=O)N[C@H](C(=O)N[C@@H](CC(N)=O)C(=O)N[C@H](C(=O)NCC(=O)N[C@@H](CO)C(=O)N[C@@H](CC(N)=O)C(=O)N[C@H](C(=O)N[C@@H](Cc1ccc(O)cc1)C(N)=O)[C@@H](C)O)[C@@H](C)O)[C@@H](C)O)[C@@H](C)O [AC253] |  | correctly identified the food arm of the maze | marked improvement in latencies to locate the hidden platform | enhanced and persistent memory in probe trials | no memory deficits | none of the mice receiving AC253 showed any signs of off-target effects | 1.05 | -1.2 | no noticeable difference | 40 | 30 | no significant difference | 50 |  |
| CC(C)C[C@H](NC(=O)[C@H](CCC(=O)O)NC(=O)[C@H](CCC(N)=O)NC(=O)[C@@H](N)CO)C(=O)N[C@@H](Cc1c[nH]cn1)C(=O)N[C@@H](CCCNC(=N)N)C(=O)N[C@@H](CC(C)C)C(=O)N[C@@H](CCC(N)=O)C(=O)N[C@H](C(=O)N[C@@H](Cc1ccc(O)cc1)C(=O)N1CCC[C@H]1C(=O)N[C@@H](CCCNC(=N)N)C(N)=O)[C@@H](C)O [R5] (H-SQELHRLQTYPR-NH2; N-terminus assumed) | selective and significant specific binding |  |  |  |  |  |  |  |  |  |  |  |  | proportional to the degree of amylin receptor expression |
